The source of these data is patent US8680100B2, “Sulfonylhydrazide compounds for treating proliferative disorders” (Synta Pharmaceuticals Corp., priority 2008, dated 2014).

In this test the test system is HSP70. In words: Hsp70 Activity Essay (HSP70 ELISA on lysates of MDA435 cells). The test is classed as cell-based. The conditions noted are these: concentration that increases HSP70 to 50% of maximum increase by N′1,N′3-dimethyl-N′1,N′3-di(phenylcarbonothioyl)malonohydrazide. How it is done: Each well was plated with MDA435 cells using DMEM 10% FBS Phenol-red free medium 2.5 k/well and incubated in a 37° C./5% CO2 incubator for a minimum of 6 hours to obtain good cell adherence.
Dilutions of each test compound were prepared in DMSO and DMEM 10% FBS Phenol-red free medium. The final concentration in each well was 1250 nM, 125 nM, 12.5 nM or 1.25 nM of test compound and 0.25% DMSO. 0.25% DMSO was used as a negative control. Lysis buffer (any lysis buffer suitable for use in the Assay Designs kit, e.g., such as that described in the kit instructions) was then added (amount used is one quarter of the volume already present in each plate) and the mixtures were then shaken for 10 minutes.
150 μL of “Can Get Signal” Immunoreaction Enhancer Solution (Solution 1 for primary antibody, TOYOBO, Catalogue No. NKB-101) were added to each of a series of ELISA plates. The ELISA plates were obtained from the HSP70 ELISA Kit (catalogue number EKS-700B) purchased from Assay Designs (Ann Arbor, Mich.). After the cells were lysed, 50 μL of lysate were taken from each well and added to an ELISA plate, resulting in a 4 fold dilution of the lysate (50 μL of lysate and 150 μL of Can Get Signal solution). The plates were covered with adhesive tape and incubated overnight at 4° C.;
In the morning, the liquid was aspirated from all wells and 400 μL of Washing Buffer made from 20× concentrate provided in the ELISA Kit and distilled water were added and then removed by aspiration. The addition of Washing Buffer and aspiration was repeated four times. After the fourth wash, the plate were inverted to a paper towel and carefully patted dry. 100 μL of HSP70 antibody provided in ELISA Kit were added to each well. Each well was covered with adhesive tape and incubated for one hour at room temperature. Washing Buffer was then added followed by removal with aspiration. The addition of Washing Buffer and aspiration was repeated four times, after which the plates were inverted and patted dry. 100 μL of HSP70 conjugate (provided in the ELISA Kit) were added to the wells. Each well was then covered with adhesive tape and incubated for one hour at room temperature. Washing Buffer was then added followed by removal with aspiration. The addition of Washing Buffer and aspiration was repeated four times, after which the plates were inverted and patted dry.
100 μL of the TMB Substrate (obtained from the ELISA Kit) were added to the wells (color development was visible in 1 minute). The wells were incubated until saturated color development (usually 5-15 minutes). Stop Solution 2 (provided in the ELISA Kit) was added in the same order TMB Substrate was added. The OD450 was then obtained using a plate reader. The EC50 for the compounds was calculated using N′^1,N′^3-dimethyl-N′^1,N′^3-di(phenylcarbonothioyl)malonohydrazide on the same plate as a control (concentration that increases HSP70 to 50% of maximum increase by N′^1,N′^3-dimethyl-N′^1,N′^3-di(phenylcarbonothioyl)malonohydrazide). The EC50 for each of the compounds tested is shown in example 1.

The molecule `CN(NC(=O)CS(=O)(=O)NN(C)C(=S)c1cccc(F)c1)C(=S)c1cccc(F)c1` [Compound 1, N′-(3-fluorophenylcarbonothioyl)-2-(2-(3-fluorophenylcarbonothioyl)-2-methylhydrazinyl)-N′-methyl-2-oxoethanesulfonohydrazide] had an EC50 of 60 nM.
On to `CCN(NS(=O)(=O)CC(=O)NN(C)C(=S)c1ccccc1)C(=S)c1ccccn1` [Compound 6, N′-ethyl-2-(2-methyl-2-(phenylcarbonothioyl)hydrazinyl)-2-oxo-N′-(pyridine-2-carbonothioyl) ethanesulfonohydrazide], for which a half-maximal effect (EC50) was put at 25 nM. Compared with the last molecule, the EC50 is about 2.4-fold lower.
Take `CN(NC(=O)CS(=O)(=O)NN(C)C(=S)c1cnccn1)C(=S)c1ccccc1` [Compound 9, N′-methyl-2-(2-methyl-2-(phenylcarbonothioyl)hydrazinyl)-2-oxo-N′-(pyrazine-2-carbonothioyl)-ethanesulfonohydrazide]: the EC50 amounted to 971 nM.
With `CN(NC(=O)CS(=O)(=O)NN(C)C(=S)c1cccnc1)C(=S)c1ccccc1` [Compound 10, N′-methyl-2-(2-methyl-2-(phenylcarbonothioyl)hydrazinyl)-2-oxo-N′-(pyridine-3-carbonothioyl)-ethanesulfonohydrazide], a half-maximal response (EC50) required 180 nM.
Molecule `CN(NC(=O)CS(=O)(=O)NN(C)C(=S)c1ccccc1)C(=S)c1ccncc1` [Compound 11, N′-methyl-2-(2-methyl-2-(pyridine-4-carbonothioyl)hydrazinyl)-2-oxo-N′-(phenylcarbonothioyl)ethane-sulfonohydrazide] came in with an EC50 of 1030 nM. Compared with the last molecule, the EC50 is about 5.7-fold higher.
`CN(NC(=O)CS(=O)(=O)NN(C)C(=S)c1ccccc1)C(=S)c1cccnc1` [Compound 13, N′-methyl-2-(2-methyl-2-(pyridine-3-carbonothioyl)hydrazinyl)-2-oxo-N′-(phenylcarbonothioyl)ethane-sulfonohydrazide] yielded an EC50 of 202 nM.
Then `CN(NC(=O)CS(=O)(=O)NN(C)C(=S)c1ccoc1)C(=S)c1ccoc1` [Compound 17, N′-(furan-3-carbonothioyl)-2-(2-(furan-3-carbonothioyl)-2-methylhydrazinyl)-N′-methyl-2-oxoethanesulfonohydrazide], with 127 nM; and `CN(NC(=O)CS(=O)(=O)NN(C)C(=S)c1ccco1)C(=S)c1ccco1` [Compound 18, N′-(furan-2-carbonothioyl)-2-(2-(furan-2-carbonothioyl)-2-methylhydrazinyl)-N′-methyl-2-oxoethanesulfonohydrazide], with 15 nM.
`CCN(CC)C(=S)N(C)NC(=O)CS(=O)(=O)NN(C)C(=S)N(CC)CC` [Compound 20, 2-(2-(2-(diethylcarbamothioyl)-2-methylhydrazinyl)-2-oxoethylsulfonyl)-N,N′-diethyl-1-methylhydrazinecarbothioamide] registered an EC50 of 85 nM.
The molecule `CN(NC(=O)CS(=O)(=O)NN(C)C(=S)C1CC1)C(=S)C1CC1` [Compound 28, N′-(cyclopropanecarbonothioyl)-2-(2-(cyclopropanecarbonothioyl)-2-methylhydrazinyl)-N′-methyl-2-oxoethanesulfonohydrazide] returned an EC50 of 98 nM.
`CCN(NC(=O)CS(=O)(=O)NN(CC)C(=S)C1CC1)C(=S)C1CC1` [Compound 29, N′-(cyclopropanecarbonothioyl)-2-(2-(cyclopropanecarbonothioyl)-2-ethylhydrazinyl)-N′-ethyl-2-oxoethanesulfonohydrazide] had an EC50 of 146 nM.
As to `CCN(NC(=O)CS(=O)(=O)NN(CC)C(=S)C1(C)CC1)C(=S)C1(C)CC1` [Compound 30, N′-ethyl-2-(2-ethyl-2-(1-methylcyclopropanecarbonothioyl) hydrazinyl)-N′-(1-methylcyclopropanecarbonothioyl)-2-oxoethanesulfonohydrazide], the EC50 was 49 nM.
Molecule `CCN(CC)C(=S)N(C)NS(=O)(=O)CC(=O)NN(C)C(=S)C1CC1` [Compound 31, 2-(2-(2-(cyclopropanecarbonothioyl)-2-methylhydrazinyl)-2-oxoethylsulfonyl)-N,N′-diethyl-1-methylhydrazinecarbothioamide] registered an EC50 of 174 nM.
`CN(NC(=O)CS(=O)(=O)NN(C)C(=S)C1CCC1)C(=S)C1CCC1` [Compound 32, N′-(cyclobutanecarbonothioyl)-2-(2-(cyclobutanecarbonothioyl)-2-methylhydrazinyl)-N′-methyl-2-oxoethanesulfonohydrazide] returned an EC50 of 958 nM. Against the preceding molecule, the EC50 is about 5.5-fold higher.
For the molecule `CCOC(=S)N(C)NS(=O)(=O)CC(=O)NN(C)C(=S)C1CC1` [Compound 33, O-ethyl 2-(2-(2-(cyclopropanecarbonothioyl)-2-methylhydrazinyl)-2-oxoethylsulfonyl)-1-methylhydrazinecarbothioate], the concentration giving a half-maximal response (EC50) was 143 nM.
Then `CCN(NS(=O)(=O)CC(=O)NN(C)C(=S)C1CC1)C(=S)c1cnccn1` [Compound 35, 2-(2-(cyclopropanecarbonothioyl)-2-methylhydrazinyl)-N′-ethyl-2-oxo-N′-(pyrazine-2-carbonothioyl)-ethanesulfonohydrazide], with 1020 nM.
Then `CN(NS(=O)(=O)CC(=O)NN(C)C(=S)C1CC1)C(=S)c1ccccc1` [Compound 36, 2-(2-(cyclopropanecarbonothioyl)-2-methylhydrazinyl)-N′-methyl-2-oxo-N′-(phenylcarbonothioyl)ethane-sulfonohydrazide], with 76 nM; and `CN(NC(=O)CS(=O)(=O)NN(C)C(=S)C1CC1)C(=S)c1ccccc1` [Compound 39, N′-(cyclopropanecarbonothioyl)-N′-methyl-2-(2-methyl-2-(phenylcarbonothioyl)hydrazinyl)-2-oxoethanesulfonohydrazide], with 22 nM.
`CN(NS(=O)(=O)CC(=O)NN(C)C(=S)C1CCC1)C(=S)c1ccccc1` [Compound 40, 2-(2-(cyclobutanecarbonothioyl)-2-methylhydrazinyl)-N′-methyl-2-oxo-N′-(phenylcarbonothioyl)ethane-sulfonohydrazide]: the EC50 was found to be 1120 nM.
The value for `CN(NC(=O)CS(=O)(=O)NN(C)C(=S)c1ccc2c(c1)OCO2)C(=S)c1ccccc1` [Compound 42, N′-(benzo[d][1,3]dioxole-5-carbonothioyl)-N′-methyl-2-(2-methyl-2-(phenylcarbonothioyl)hydrazinyl)-2-oxoethanesulfonohydrazide] was 56 nM.
The value for `CN(NC(=O)CS(=O)(=O)NN(C)C(=S)c1ccc(N2CCOCC2)cc1)C(=S)c1ccccc1` [Compound 43, N′-methyl-2-(2-methyl-2-(phenylcarbonothioyl)hydrazinyl)-N′-(4-morpholinophenylcarbonothioyl)-2-oxoethanesulfonohydrazide] was 74 nM; that for `CSC(=S)N(C)NS(=O)(=O)CC(=O)NN(C)C(=S)c1ccccc1` [Compound 44, methyl 1-methyl-2-(2-(2-methyl-2-(phenylcarbonothioyl)hydrazinyl)-2-oxoethylsulfonyl) hydrazinecarbodithioate] was 228 nM.
Take `CCN(NS(=O)(=O)CC(=O)NN(C)C(=S)c1ccccc1)C(=S)N1CCOCC1` [Compound 50, N′-ethyl-2-(2-methyl-2-(phenylcarbonothioyl)hydrazinyl)-N′-(morpholine-4-carbonothioyl)-2-oxoethanesulfonohydrazide]: the EC50 is 114 nM.
The molecule `CN(NC(=O)CS(=O)(=O)NN(C)C(=S)N1CCCC1)C(=S)c1ccccc1` [Compound 51, N′-methyl-2-(2-methyl-2-(phenylcarbonothioyl)hydrazinyl)-2-oxo-N′-(pyrrolidine-1-carbonothioyl)-ethanesulfonohydrazide] came in with an EC50 of 57 nM. Compared with the last molecule, the EC50 is about 2-fold lower.
The molecule `CN(NC(=O)CS(=O)(=O)NN(C)C(=S)N1CCCCC1)C(=S)c1ccccc1` [Compound 52, N′-methyl-2-(2-methyl-2-(phenylcarbonothioyl)hydrazinyl)-2-oxo-N′-(piperidine-1-carbonothioyl)-ethanesulfonohydrazide] gave an EC50 of 87 nM.
Then `CN(NS(=O)(=O)CC(=O)NN(C)C(=S)N1CCCC1)C(=S)c1ccccc1` [Compound 53, N′-methyl-2-(2-methyl-2-(pyrrolidine-1-carbonothioyl)hydrazinyl)-2-oxo-N′-(phenylcarbonothioyl)ethane-sulfonohydrazide], with 102 nM.
